This is an account of results in ChEMBL document CHEMBL2074011, “Comparison of furosemide and vinblastine secretion from cell lines overexpressing multidrug resistance protein (P-glycoprotein) and multidrug resistance-associated proteins (MRP1 and MRP2)” (Pharmacology, 2002).

Data set [1] addresses ATP-binding cassette sub-family C member 2 (Homo sapiens, UniProt Q92887). The data set is described as follows: TP_TRANSPORTER: inhibition of Vinblastine transepithelial transport (basal to apical)(Vinblastine: 0.035 uM, Sulfinpyrazone: 1000 uM) in MRP2-expressing MDCKII cells. In kind it is functional, cell-based. To be noted: dog, mdck-ii.
Data set [2] has as its target Multidrug resistance-associated protein 1 (Homo sapiens, UniProt P33527). The data set is described as follows: TP_TRANSPORTER: transepithelial transport (basal to apical) in MRP1-expressing LLC-PK1cell. The note with it: pig, llc-pk1. The data set is classed as functional, cell-based.

ATP-binding cassette sub-family C member 2, sequence (Q92887 whole entry): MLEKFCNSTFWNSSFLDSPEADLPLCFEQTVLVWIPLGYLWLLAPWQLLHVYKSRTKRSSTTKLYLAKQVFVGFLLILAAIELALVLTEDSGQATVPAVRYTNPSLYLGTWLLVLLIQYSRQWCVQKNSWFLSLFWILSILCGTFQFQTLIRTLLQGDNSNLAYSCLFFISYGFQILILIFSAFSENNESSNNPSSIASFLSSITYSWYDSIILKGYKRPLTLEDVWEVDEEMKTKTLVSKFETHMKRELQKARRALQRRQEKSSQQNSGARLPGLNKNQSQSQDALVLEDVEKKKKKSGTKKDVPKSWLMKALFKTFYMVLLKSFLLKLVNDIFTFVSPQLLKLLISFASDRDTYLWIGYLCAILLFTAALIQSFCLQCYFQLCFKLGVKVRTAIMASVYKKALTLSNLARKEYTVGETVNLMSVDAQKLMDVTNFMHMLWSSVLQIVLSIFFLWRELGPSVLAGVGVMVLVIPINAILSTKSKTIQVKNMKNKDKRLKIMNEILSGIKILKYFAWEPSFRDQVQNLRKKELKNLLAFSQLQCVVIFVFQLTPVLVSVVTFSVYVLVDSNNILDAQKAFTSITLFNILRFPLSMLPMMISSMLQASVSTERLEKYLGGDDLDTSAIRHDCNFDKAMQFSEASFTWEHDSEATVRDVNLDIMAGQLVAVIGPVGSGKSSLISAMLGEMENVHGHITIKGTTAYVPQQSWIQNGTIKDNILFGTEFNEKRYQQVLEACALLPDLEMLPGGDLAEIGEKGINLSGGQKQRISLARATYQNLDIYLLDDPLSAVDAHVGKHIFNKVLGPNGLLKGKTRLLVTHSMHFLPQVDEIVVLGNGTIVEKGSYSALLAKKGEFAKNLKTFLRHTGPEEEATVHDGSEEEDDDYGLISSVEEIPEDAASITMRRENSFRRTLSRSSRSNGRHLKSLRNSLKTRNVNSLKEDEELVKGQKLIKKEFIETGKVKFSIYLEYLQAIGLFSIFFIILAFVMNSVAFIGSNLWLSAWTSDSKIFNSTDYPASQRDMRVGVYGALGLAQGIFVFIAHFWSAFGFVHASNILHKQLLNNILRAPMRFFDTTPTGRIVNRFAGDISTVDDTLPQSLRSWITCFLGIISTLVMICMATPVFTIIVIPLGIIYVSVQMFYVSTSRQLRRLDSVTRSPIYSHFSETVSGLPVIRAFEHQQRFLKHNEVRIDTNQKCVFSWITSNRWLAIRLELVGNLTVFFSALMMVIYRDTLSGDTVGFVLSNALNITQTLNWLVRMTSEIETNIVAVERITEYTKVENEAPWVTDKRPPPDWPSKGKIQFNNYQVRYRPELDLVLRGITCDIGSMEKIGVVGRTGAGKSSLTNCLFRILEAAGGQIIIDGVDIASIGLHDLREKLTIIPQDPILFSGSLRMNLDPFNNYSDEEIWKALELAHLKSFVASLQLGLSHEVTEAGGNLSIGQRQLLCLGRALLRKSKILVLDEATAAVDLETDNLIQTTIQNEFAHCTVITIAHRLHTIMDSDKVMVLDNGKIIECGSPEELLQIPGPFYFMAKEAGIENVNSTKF
Multidrug resistance-associated protein 1, sequence (P33527 whole entry): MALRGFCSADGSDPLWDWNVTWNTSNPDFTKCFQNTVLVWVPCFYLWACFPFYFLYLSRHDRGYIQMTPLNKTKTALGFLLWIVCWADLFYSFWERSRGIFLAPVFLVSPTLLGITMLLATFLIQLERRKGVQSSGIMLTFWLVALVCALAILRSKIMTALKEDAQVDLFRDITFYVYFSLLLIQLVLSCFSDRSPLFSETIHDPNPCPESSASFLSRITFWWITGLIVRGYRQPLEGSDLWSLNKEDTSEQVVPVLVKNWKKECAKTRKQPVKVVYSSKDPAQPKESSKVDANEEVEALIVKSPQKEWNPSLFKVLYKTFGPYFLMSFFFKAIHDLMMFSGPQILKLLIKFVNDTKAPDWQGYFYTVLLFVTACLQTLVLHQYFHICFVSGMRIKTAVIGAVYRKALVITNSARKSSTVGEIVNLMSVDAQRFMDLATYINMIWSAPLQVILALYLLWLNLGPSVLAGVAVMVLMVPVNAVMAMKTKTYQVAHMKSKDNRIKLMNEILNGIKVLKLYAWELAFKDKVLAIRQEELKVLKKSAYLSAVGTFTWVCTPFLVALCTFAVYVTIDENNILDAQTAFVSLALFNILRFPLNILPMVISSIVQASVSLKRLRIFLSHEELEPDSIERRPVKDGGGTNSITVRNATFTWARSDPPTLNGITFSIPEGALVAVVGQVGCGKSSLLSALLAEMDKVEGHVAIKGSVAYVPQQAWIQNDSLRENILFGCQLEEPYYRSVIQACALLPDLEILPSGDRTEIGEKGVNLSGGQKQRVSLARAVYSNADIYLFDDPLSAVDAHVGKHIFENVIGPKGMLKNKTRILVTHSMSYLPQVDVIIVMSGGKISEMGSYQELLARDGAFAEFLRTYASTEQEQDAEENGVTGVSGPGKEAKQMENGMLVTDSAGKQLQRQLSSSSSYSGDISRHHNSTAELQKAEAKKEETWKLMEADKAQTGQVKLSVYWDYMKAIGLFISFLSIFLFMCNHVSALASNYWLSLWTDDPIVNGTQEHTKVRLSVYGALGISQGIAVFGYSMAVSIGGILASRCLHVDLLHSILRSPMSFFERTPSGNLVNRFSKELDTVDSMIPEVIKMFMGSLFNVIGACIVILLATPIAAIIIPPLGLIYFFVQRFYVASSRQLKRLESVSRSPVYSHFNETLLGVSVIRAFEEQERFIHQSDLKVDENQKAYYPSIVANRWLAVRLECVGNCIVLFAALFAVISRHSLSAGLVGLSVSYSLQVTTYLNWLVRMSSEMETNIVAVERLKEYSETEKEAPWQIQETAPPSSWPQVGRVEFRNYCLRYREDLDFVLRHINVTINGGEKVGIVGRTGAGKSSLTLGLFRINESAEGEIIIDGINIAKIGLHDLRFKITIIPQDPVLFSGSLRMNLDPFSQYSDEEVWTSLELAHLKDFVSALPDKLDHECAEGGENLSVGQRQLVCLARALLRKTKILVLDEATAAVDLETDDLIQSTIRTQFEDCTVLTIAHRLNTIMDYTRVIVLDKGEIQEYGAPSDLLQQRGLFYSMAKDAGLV

With `O=C1C(CC[S+]([O-])c2ccccc2)C(=O)N(c2ccccc2)N1c1ccccc1` (configuration not stated) [SULFINPYRAZONE], the Activity result in data set [1] is “inhibitor [+]”.
Regarding `CC[C@]1(O)C[C@@H]2CN(CCc3c([nH]c4ccccc34)[C@@](C(=O)OC)(c3cc4c(cc3OC)N(C)[C@H]3[C@@](O)(C(=O)OC)[C@H](OC(C)=O)[C@]5(CC)C=CCN6CC[C@]43[C@@H]65)C2)C1` [VINBLASTINE], in data set [2], the Activity result was “substrate [+]”.
